Experimental data as given in patent US9062071B2, “Substituted piperidines as HDM2 inhibitors” (Merck Sharp & Dohme Corp, priority 2011, dated 2015).

Target: HDM2 protein (Homo sapiens, UniProt Q00987)
Test: fluorescence polarization screening assay (FP IC50)
Type: binding
Details: class symbols
Description: The compounds were evaluated to determine activity at the HDM2 protein by known methods such as the fluorescence polarization screening assay that measures the inhibitory concentration that achieves 50% of maximal activity (FP IC50) and the dissociation constant for inhibitor binding (FP Ki). [Zhang et al., J. Analytical Biochemistry 331: 138-146 (2004)].

Chain of HDM2 protein (Q00987 whole entry): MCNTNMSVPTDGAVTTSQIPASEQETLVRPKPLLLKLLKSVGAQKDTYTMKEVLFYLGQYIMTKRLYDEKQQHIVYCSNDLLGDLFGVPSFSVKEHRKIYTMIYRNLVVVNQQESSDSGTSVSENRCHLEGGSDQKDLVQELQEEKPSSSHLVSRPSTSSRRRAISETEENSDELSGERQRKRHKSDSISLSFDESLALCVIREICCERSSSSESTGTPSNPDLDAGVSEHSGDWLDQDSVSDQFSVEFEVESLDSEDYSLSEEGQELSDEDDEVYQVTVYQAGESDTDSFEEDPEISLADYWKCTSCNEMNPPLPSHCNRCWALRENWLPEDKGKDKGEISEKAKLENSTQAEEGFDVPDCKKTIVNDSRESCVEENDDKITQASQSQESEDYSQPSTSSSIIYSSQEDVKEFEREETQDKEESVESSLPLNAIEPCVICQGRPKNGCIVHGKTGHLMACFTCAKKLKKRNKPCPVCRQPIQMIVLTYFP

Row | SMILES | IC50 [nM]
1 | CCC[C@H]1N(C(=O)c2ncccc2C(F)(F)F)CCC[C@@]1(Oc1csc(C(F)(F)F)c1)C(=O)N1Cc2ccc(Br)cc2C[C@@H]1C(=O)O [Compound A134, (3R)-6-bromo-2-{[(2R,3S)-2-propyl-1-{[3-(trifluoromethyl)pyridin-2-yl]carbonyl}-3-{[5-(trifluoromethyl)thiophen-3-yl]oxy}piperidin-3-yl]carbonyl}-1,2,3,4-tetrahydroisoquinoline-3-carboxylic acid] | 1 to 100
2 | CCC[C@H]1N(C(=O)c2ncccc2C(F)(F)F)CCC[C@@]1(Oc1csc(C(F)(F)F)c1)C(=O)N1CCc2cc(Cl)ccc2[C@H]1CCC(=O)NC#N [Compound A79, 3-[(1R)-6-chloro-2-{[(2R,3S)-2-propyl-1-{[3-(trifluoromethyl)pyridin-2-yl]carbonyl}-3-{[5-(trifluoromethyl)thiophen-3-yl]oxy}piperidin-3-yl]carbonyl}-1,2,3,4-tetrahydroisoquinolin-1-yl]-N-cyanopropanamide] | 1 to 100
3 | CCC[C@H]1N(C(=O)c2ncccc2C(F)(F)F)CCC[C@@]1(Oc1csc(C(F)(F)F)c1)C(=O)N1CCc2cc(Cl)ccc2C1CC(C(=O)O)C(C)C (stereo partly drawn) [Compound A179, 2-[(6-chloro-2-{[(2R,3S)-2-propyl-1-{[3-(trifluoromethyl)pyridin-2-yl]carbonyl}-3-{[5-(trifluoromethyl)thiophen-3-yl]oxy}piperidin-3-yl]carbonyl}-1,2,3,4-tetrahydroisoquinolin-1-yl)methyl]-3-methylbutanoic acid] | 1 to 100
4 | CCC[C@H]1N(C(=O)c2ncccc2C(F)(F)F)CCC[C@@]1(Oc1csc(C(F)(F)F)c1)C(=O)N1CCc2cc(Cl)c(Cl)cc2C1 [Compound A87, 6,7-dichloro-2-{[(2R,3S)-2-propyl-1-{[3-(trifluoromethyl)pyridin-2-yl]carbonyl}-3-{[5-(trifluoromethyl)thiophen-3-yl]oxy}piperidin-3-yl]carbonyl}-1,2,3,4-tetrahydroisoquinoline] | 101 to 20000
5 | CCC[C@H]1N(C(=O)c2ncccc2C(F)(F)F)CCC[C@@]1(Oc1csc(C(F)(F)F)c1)C(=O)N1CCc2cc(F)ccc2C1C(=O)N1CCN(CCO)CC1 (stereo partly drawn) [Compound A94, 2-{4-[(6-fluoro-2-{[(2R,3S)-2-propyl-1-{[3-(trifluoromethyl)pyridin-2-yl]carbonyl}-3-{[5-(trifluoromethyl)thiophen-3-yl]oxy}piperidin-3-yl]carbonyl}-1,2,3,4-tetrahydroisoquinolin-1-yl)carbonyl]piperazin-1-yl}ethanol] | 101 to 20000
6 | CCC[C@H]1N(C(=O)c2ncccc2C(F)(F)F)CCC[C@@]1(Oc1csc(C(F)(F)F)c1)C(=O)N1CCc2sc(Cl)cc2C1CCC(=O)O (stereo partly drawn) [Compound A23, 3-(2-chloro-5-{[(2R,3S)-2-propyl-1-{[3-(trifluoromethyl)pyridin-2-yl]carbonyl}-3-{[5-(trifluoromethyl)thiophen-3-yl]oxy}piperidin-3-yl]carbonyl}-4,5,6,7-tetrahydrothieno[3,2-c]pyridin-4-yl)propanoic acid] | 1 to 100
7 | CCC[C@H]1N(C(=O)c2ncccc2C(F)(F)F)CCC[C@@]1(Oc1csc(C(F)(F)F)c1)C(=O)N1CCc2cc(Cl)ccc2C1C#N (stereo partly drawn) [Compound A76, 6-chloro-2-{[(2R,3S)-2-propyl-1-{[3-(trifluoromethyl)pyridin-2-yl]carbonyl}-3-{[5-(trifluoromethyl)thiophen-3-yl]oxy}piperidin-3-yl]carbonyl}-1,2,3,4-tetrahydroisoquinoline-1-carbonitrile] | 101 to 20000
8 | CCC[C@H]1N(C(=O)c2ncccc2C(F)(F)F)CCC[C@@]1(Oc1csc(C(F)(F)F)c1)C(=O)N1Cc2ccc(F)cc2C[C@H]1C(=O)O [Compound A125, (3S)-6-fluoro-2-{[(2R,3S)-2-propyl-1-{[3-(trifluoromethyl)pyridin-2-yl]carbonyl}-3-{[5-(trifluoromethyl)thiophen-3-yl]oxy}piperidin-3-yl]carbonyl}-1,2,3,4-tetrahydroisoquinoline-3-carboxylic acid] | 1 to 100
9 | CCC[C@H]1N(C(=O)c2ncccc2C(F)(F)F)CCC[C@@]1(Oc1csc(C(F)(F)F)c1)C(=O)N1Cc2sc(Br)cc2C[C@H]1C(=O)NS(C)(=O)=O [Compound A175, (5S)-2-bromo-N-(methylsulfonyl)-6-{[(2R,3S)-2-propyl-1-{[3-(trifluoromethyl)pyridin-2-yl]carbonyl}-3-{[5-(trifluoromethyl)thiophen-3-yl]oxy}piperidin-3-yl]carbonyl}-4,5,6,7-tetrahydrothieno[2,3-c]pyridine-5-carboxamide] | 1 to 100
10 | CCC[C@H]1N(C(=O)c2ncccc2C(F)(F)F)CCC[C@@]1(Oc1csc(C(F)(F)F)c1)C(=O)N1Cc2ccc(F)cc2C[C@@H]1C(=O)NCCO [Compound A150, (3R)-6-fluoro-N-(2-hydroxyethyl)-2-{[(2R,3S)-2-propyl-1-{[3-(trifluoromethyl)pyridin-2-yl]carbonyl}-3-{[5-(trifluoromethyl)thiophen-3-yl]oxy}piperidin-3-yl]carbonyl}-1,2,3,4-tetrahydroisoquinoline-3-carboxamide] | 1 to 100
11 | CCC[C@H]1N(C(=O)c2ncccc2C(F)(F)F)CCC[C@@]1(Oc1csc(C(F)(F)F)c1)C(=O)N1CCc2cc(N(C)C)ccc2C1 [Compound A83, N,N-dimethyl-2-{[(2R,3S)-2-propyl-1-{[3-(trifluoromethyl)pyridin-2-yl]carbonyl}-3-{[5-(trifluoromethyl)thiophen-3-yl]oxy}piperidin-3-yl]carbonyl}-1,2,3,4-tetrahydroisoquinolin-6-amine] | 101 to 20000
12 | CCC[C@H]1N(C(=O)c2ncccc2C(F)(F)F)CCC[C@@]1(Oc1csc(C(F)(F)F)c1)C(=O)N1CCc2cc(OC)ccc2C1 [Compound A47, 6-methoxy-2-{[(2R,3S)-2-propyl-1-{[3-(trifluoromethyl)pyridin-2-yl]carbonyl}-3-{[5-(trifluoromethyl)thiophen-3-yl]oxy}piperidin-3-yl]carbonyl}-1,2,3,4-tetrahydroisoquinoline] | 101 to 20000
13 | CCC[C@H]1N(C(=O)c2ncccc2C(F)(F)F)CCC[C@@]1(Oc1csc(C(F)(F)F)c1)C(=O)N1CCc2cc(Cl)ccc2C1CC(=O)N1CCC(O)CC1 (stereo partly drawn) [Compound A85, 1-[(6-chloro-2-{[(2R,3S)-2-propyl-1-{[3-(trifluoromethyl)pyridin-2-yl]carbonyl}-3-{[5-(trifluoromethyl)thiophen-3-yl]oxy}piperidin-3-yl]carbonyl}-1,2,3,4-tetrahydroisoquinolin-1-yl)acetyl]piperidin-4-ol] | 1 to 100
14 | CCC[C@H]1N(C(=O)c2ncccc2C(F)(F)F)CCC[C@@]1(Oc1csc(C(F)(F)F)c1)C(=O)N1CCc2cc(SC)ccc2C1 [Compound A88, 6-(methylsulfanyl)-2-{[(2R,3S)-2-propyl-1-{[3-(trifluoromethyl)pyridin-2-yl]carbonyl}-3-{[5-(trifluoromethyl)thiophen-3-yl]oxy}piperidin-3-yl]carbonyl}-1,2,3,4-tetrahydroisoquinoline] | 101 to 20000
15 | CCC[C@H]1N(C(=O)c2ncccc2C(F)(F)F)CCC[C@@]1(Oc1csc(C(F)(F)F)c1)C(=O)N1Cc2ccc(F)cc2C[C@@H]1CCCCC(=O)O [Compound A131, 5-[(3S)-6-fluoro-2-{[(2R,3S)-2-propyl-1-{[3-(trifluoromethyl)pyridin-2-yl]carbonyl}-3-{[5-(trifluoromethyl)thiophen-3-yl]oxy}piperidin-3-yl]carbonyl}-1,2,3,4-tetrahydroisoquinolin-3-yl]pentanoic acid] | 1 to 100
16 | CCC[C@H]1N(C(=O)c2ncccc2C(F)(F)F)CCC[C@@]1(Oc1csc(C(F)(F)F)c1)C(=O)N1CCc2cc(Cl)ccc2C1CC(=O)N1CCNC(=O)C1 (stereo partly drawn) [Compound A81, 4-[(6-chloro-2-{[(2R,3S)-2-propyl-1-{[3-(trifluoromethyl)pyridin-2-yl]carbonyl}-3-{[5-(trifluoromethyl)thiophen-3-yl]oxy}piperidin-3-yl]carbonyl}-1,2,3,4-tetrahydroisoquinolin-1-yl)acetyl]piperazin-2-one] | 1 to 100
17 | CCC[C@H]1N(C(=O)c2ncccc2C(F)(F)F)CCC[C@@]1(Oc1csc(C(F)(F)F)c1)C(=O)N1Cc2ccc(Cl)cc2C[C@@H]1C(=O)N1CCC(OC)CC1 [Compound A169, (3R)-6-chloro-3-[(4-methoxypiperidin-1-yl)carbonyl]-2-{[(2R,3S)-2-propyl-1-{[3-(trifluoromethyl)pyridin-2-yl]carbonyl}-3-{[5-(trifluoromethyl)thiophen-3-yl]oxy}piperidin-3-yl]carbonyl}-1,2,3,4-tetrahydroisoquinoline] | 1 to 100
18 | COCCN1CCN(CC[C@H]2N(C(=O)c3ncccc3C(F)(F)F)CCC[C@@]2(Oc2csc(C(F)(F)F)c2)C(=O)N2CCc3cc(Cl)ccc3C2COC)CC1 (stereo partly drawn) [Compound A21, 6-chloro-2-{[(2R,3S)-2-{2-[4-(2-methoxyethyl)piperazin-1-yl]ethyl}-1-{[3-(trifluoromethyl)pyridin-2-yl]carbonyl}-3-{[5-(trifluoromethyl)thiophen-3-yl]oxy}piperidin-3-yl]carbonyl}-1-(methoxymethyl)-1,2,3,4-tetrahydroisoquinoline] | 1 to 100
19 | CCC[C@H]1N(C(=O)c2ncccc2C(F)(F)F)CCC[C@@]1(Oc1csc(C(F)(F)F)c1)C(=O)N1CCc2ccc(OC)cc2C1 [Compound A140, 7-methoxy-2-{[(2R,3S)-2-propyl-1-{[3-(trifluoromethyl)pyridin-2-yl]carbonyl}-3-{[5-(trifluoromethyl)thiophen-3-yl]oxy}piperidin-3-yl]carbonyl}-1,2,3,4-tetrahydroisoquinoline] | 101 to 20000
20 | CCC[C@H]1N(C(=O)c2ncccc2C(F)(F)F)CCC[C@@]1(Oc1csc(C(F)(F)F)c1)C(=O)N1CCc2cc(-c3ccsc3)ccc2C1 [Compound A66, 2-{[(2R,3S)-2-propyl-1-{[3-(trifluoromethyl)pyridin-2-yl]carbonyl}-3-{[5-(trifluoromethyl)thiophen-3-yl]oxy}piperidin-3-yl]carbonyl}-6-thiophen-3-yl-1,2,3,4-tetrahydroisoquinoline] | 101 to 20000
